Earlier results in US20190358240A1, “HIV TREATMENT FORMULATION OF ATAZANAVIR AND COBICISTAT” (BRISTOL-MYERS SQUIBB COMPANY, priority 2013, published 2019).

Details: human, in vivo

- Accumulation at steady state: 2-3 fold
- Time to steady state: 4 to 8 days
- Tmax: ~2.5 h
Structure (SMILES): COC(=O)N[C@H](C(=O)N[C@@H](Cc1ccccc1)[C@@H](O)CN(Cc1ccc(-c2ccccn2)cc1)NC(=O)[C@@H](NC(=O)OC)C(C)(C)C)C(C)(C)C [Atazanavir, methyl N-[(1S)-1-{[(2S,3S)-3-hydroxy-4-[(2S)-2-[(methoxycarbonyl)amino]-3,3-dimethyl-N′-{[4-(pyridin-2-yl)phenyl]methyl}butanehydrazido]-1-phenylbutan-2-yl]carbamoyl}-2,2-dimethylpropyl]carbamate]
